For one experiment, the system named is Saos-2. The experiment in a line: Inhibition of cell growth, MTT assay, Saos-2. The settings on record: Saos-2, MTT assay; for IC50 / IC90: Homo sapiens; for % inhibition of growth in parentheses after >25: concentration not given. It counts as cell-based. The procedure:
(§1) The water-insoluble purple formazan product was then detected spectrophotometrically. […] Plates were incubated for four hours before addition of inhibitor compounds. Different concentrations of inhibitor compounds were added in 0.5% (v/v) dimethylsulfoxide (15 μL/well), and cells were incubated at 37° C. (5% CO2) for four to six days (depending on cell type). At the end of the incubation, MTT was added to a final concentration of 0.2 mg/mL, and cells were incubated for 4 hours more at 37° C. After centrifugation of the plates and removal of medium, the absorbance of the formazan (solubilized in dimethylsulfoxide) was measured at 540 nm.

For the next experiment, the system named is U2-OS. The experiment in a line: Inhibition of cell growth, MTT assay, U2-OS. It counts as cell-based. The following applies: for IC50 / IC90: Homo sapiens, U2OS; for % inhibition of growth in parentheses after >25: concentration not given. The procedure:
as §1
(Tetrazolium assays rely on reduction of a dye to a coloured formazan, in cell work by metabolically active cells.)

Experiment [1] addresses T1, complex of human CDK4 and cyclin D3 (Homo sapiens, UniProt P11802).
T1 construct: made in house; host or cells: insect cells, co-infected with baculovirus
The experiment in a line: Inhibition of CDK4/cyclin D retinoblastoma kinase activity (D-type cyclin is D3). The settings on record: superscript a: D-type cyclin is D3; apparent Ki; read-out: Ki CDK 4/D. It counts as biochemical. The gist of the method: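 Apparent Ki derived by fitting background-corrected activity to competitive (or, for tight binders, competitive tight-binding) equations with measured ATP Km. Rb phosphorylation by radiolabelled ATP was measured at 30°C, 20 min standard or 60 min at 5 nM complex for tight binders, via nitrocellulose capture and phosphorimager.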

The test system of the next experiment is HCT116. Nature of the experiment: Inhibition of cell growth, MTT assay, HCT116. It counts as cell-based, human. The settings on record: for IC50 / IC90: Homo sapiens, HCT-116; for % inhibition of growth in parentheses after >25: concentration not given. The procedure: as §1
The next experiment addresses T2, CDK2/cyclin A (Homo sapiens, UniProt P24941).
T2 construct: made in house; host or cells: CDK2: insect cells (baculovirus); cyclin A: E. coli, then limited proteolysis
The experiment in a line: Inhibition of CDK2/cyclin A retinoblastoma kinase activity. It counts as biochemical. The settings on record: read-out: Ki CDK 2/A. On the procedure:
(§2) Cyclin-dependent kinase activity was measured by quantifying the enzyme-catalyzed, time-dependent incorporation of radioactive phosphate from [^32P]ATP or [^33P]ATP into a protein substrate. Unless noted otherwise, assays were performed in 96-well plates in a total volume of 50 μL, in the presence of 10 mM HEPES (N-[2-hydroxyethyl]piperazine-N′-[2-ethanesulfonic acid]) (pH 7.4), 10 mM MgCl2, 25 μM adenosine triphosphate (ATP), 1 mg/mL ovalbumin, 5 μg/mL leupeptin, 1 mM dithiothreitol, 10 mM β-glycerophosphate, 0.1 mM sodium vanadate, 1 mM sodium fluoride, 2.5 mM ethylene glycol-bis(β-aminoethyl ether)-N,N,N′N′-tetraacetic acid (EGTA), 2% (v/v) dimethylsulfoxide, and 0.03-0.4 μCi [^32/33P]ATP per reaction. Reactions were initiated with enzyme, incubated at 30° C., and terminated after 20 minutes by the addition of ethylenediaminetetraacetic acid (EDTA) to 250 mM. The phosphorylated substrate was then captured on a nitrocellulose or phosphocellulose membrane using a 96-well filtration manifold, and unincorporated radioactivity was removed by repeated washing with 0.85% phosphoric acid. Radioactivity was quantified by exposing the dried membranes to a phosphorimager.
(§3) Apparent Ki values were measured by assaying enzyme activity in the presence of different inhibitor compound concentrations and subtracting the background radioactivity measured in the absence of enzyme. The kinetic parameters (kcat, Km for ATP) were measured for each enzyme under the usual assay conditions by determining the dependence of initial rates on ATP concentration. Inhibition data were fit to an equation for competitive inhibition using Kaleidagraph (Synergy Software), or were fit to an equation for competitive tight-binding inhibition using the software KineTic (BioKin, Ltd.).
CDK2 was purified using published methodology (Rosenblatt et al., “Purification and Crystallization of Human Cyclin-dependent Kinase 2,” J. Mol. Biol., vol. 230, 1993, pp. 1317-1319) from insect cells that had been infected with a baculovirus expression vector. […] Purified, proteolyzed cyclin A was included in the assay at a three- to five-fold molar excess to CDK2. Alternatively, a complex of CDK2 and proteolyzed cyclin A was prepared and purified by gel filtration. The substrate for this assay was the same Rb substrate fragment used for the CDK4 assays, and the methodology of the CDK2/cyclin A and the CDK4/cyclin D3 assays was essentially the same, except that CDK2 was present at 150 nM or 5 nM. Ki values were measured as described above.

In experiment [2] the target is T3, human CDK1 (cdc2) and cyclin B (Homo sapiens, UniProt P06493).
T3 construct: purchased New England Biolabs (Beverly Mass.)
T3 sequence (P06493 whole entry): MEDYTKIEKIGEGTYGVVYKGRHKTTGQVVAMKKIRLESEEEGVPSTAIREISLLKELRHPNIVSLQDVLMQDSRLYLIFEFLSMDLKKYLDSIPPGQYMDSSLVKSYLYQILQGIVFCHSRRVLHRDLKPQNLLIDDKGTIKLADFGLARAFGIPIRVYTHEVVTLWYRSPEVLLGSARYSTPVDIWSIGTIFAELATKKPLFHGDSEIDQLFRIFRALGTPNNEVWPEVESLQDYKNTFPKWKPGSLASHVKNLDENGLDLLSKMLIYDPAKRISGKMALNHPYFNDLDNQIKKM
T3 sequence (P14635 whole entry partner): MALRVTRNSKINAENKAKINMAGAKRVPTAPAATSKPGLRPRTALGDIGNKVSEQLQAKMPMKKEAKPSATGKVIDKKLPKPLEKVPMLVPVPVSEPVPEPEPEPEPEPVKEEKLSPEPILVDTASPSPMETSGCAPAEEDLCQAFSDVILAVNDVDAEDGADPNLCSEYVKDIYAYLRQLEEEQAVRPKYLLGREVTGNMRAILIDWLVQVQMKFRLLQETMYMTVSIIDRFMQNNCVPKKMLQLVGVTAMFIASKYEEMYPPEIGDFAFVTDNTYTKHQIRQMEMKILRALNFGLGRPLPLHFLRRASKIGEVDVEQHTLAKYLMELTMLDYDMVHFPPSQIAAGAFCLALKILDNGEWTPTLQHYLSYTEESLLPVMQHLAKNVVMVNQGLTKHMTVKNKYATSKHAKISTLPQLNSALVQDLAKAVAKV
Nature of the experiment: Inhibition of CDK1(cdc2)/cyclin B histone H1 kinase activity. The settings on record: read-out: Ki CDK 1/B. It counts as biochemical. On the procedure: as §2, §3
The complex of human CDK1 (cdc2) and cyclin B was purchased from New England Biolabs (Beverly Mass.). Alternatively, a CDK1/glutathione-S-transferase-cyclin B1 complex was purified using glutathione affinity chromatography from insect cells that had been co-infected with the corresponding baculovirus expression vectors. The assay was executed as described above at 30° C. using 2.5 units of cdc2/cyclin B, 10 μg Histone H1 protein, and 0.1-0.3 μCi [^32/33P]ATP per assay. Phosphorylated histone substrate was captured by microfiltration on a phosphocellulose P81 membrane and quantified using a phosphorimager as described above. Ki values were measured using the described curve-fitting programs.

Molecules are shown by their SMILES.

T1 sequence (P11802 whole entry): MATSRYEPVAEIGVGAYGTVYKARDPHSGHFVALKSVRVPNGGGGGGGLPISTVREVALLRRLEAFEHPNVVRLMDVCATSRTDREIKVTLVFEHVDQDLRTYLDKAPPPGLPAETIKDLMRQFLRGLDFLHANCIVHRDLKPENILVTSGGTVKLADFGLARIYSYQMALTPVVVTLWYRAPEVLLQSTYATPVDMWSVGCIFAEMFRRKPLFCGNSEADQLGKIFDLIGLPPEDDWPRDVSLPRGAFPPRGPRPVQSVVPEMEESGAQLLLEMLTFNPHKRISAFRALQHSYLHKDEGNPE
T1 sequence (P30281 whole entry partner): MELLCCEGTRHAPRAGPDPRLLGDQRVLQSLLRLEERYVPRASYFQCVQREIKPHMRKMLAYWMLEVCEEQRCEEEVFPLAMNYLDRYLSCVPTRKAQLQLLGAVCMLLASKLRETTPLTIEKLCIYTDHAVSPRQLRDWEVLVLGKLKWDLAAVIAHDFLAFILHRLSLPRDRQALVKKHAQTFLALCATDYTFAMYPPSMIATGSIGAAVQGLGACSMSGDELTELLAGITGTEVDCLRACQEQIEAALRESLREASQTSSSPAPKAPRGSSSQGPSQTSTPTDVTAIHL

Turning to `Cc1ncsc1C(=O)c1sc(Nc2ccc(S(N)(=O)=O)cc2)nc1N` [C(47), 4-[4-Amino-5-(4-methyl-thiazole-5-carbonyl)-thiazol-2-ylamino]-benzenesulfonamide], the IC50 was determined as 2.5 µM in the experiment on Saos-2, 10 µM in the experiment on U2-OS and 4.2 µM with HCT116. Also, the IC90 with Saos-2 was determined as 5.1 µM; with U2-OS, 20 µM; in the experiment on HCT116, 7.8 µM. For the same compound, the values for the Ki (in experiment [1]; on CDK2/cyclin A) were 0.03 µM and 0.026 µM, respectively.
In the case of `Nc1nc(Nc2ccc3nc[nH]c3c2)sc1C(=O)c1c(Cl)cccc1Cl` [C(52), [4-Amino-2-(1H-benzoimidazol-6-ylamino)-thiazol-5-yl]-(2,6-dichloro-phenyl)-methanone], the IC50 in the experiment on Saos-2 stood at 9 µM; with U2-OS, 15 µM; in the experiment with HCT116 it was 8.5 µM. Moreover, the values for the IC90 in the experiment on Saos-2, in the experiment on U2-OS and with HCT116 were 22 µM, 23 µM and 17 µM, respectively. Moreover, the Ki in experiment [1] worked out at 0.011 µM; at CDK2/cyclin A it was 0.105 µM.
Consider `Nc1nc(Nc2ccc(N3CCOCC3)cc2)sc1C(=O)c1c(Cl)cncc1Cl` [C(69), {4-Amino-2-[4-morpholin-4-yl-phenylamino]-thiazol-5-yl}-(3,5-dichloro-pyridin-4-yl)-methanone], for which the values for the IC50 in the experiment with Saos-2, with U2-OS and in the experiment with HCT116 were 12 µM, 14 µM and 5 µM, respectively. For the same compound, the IC90 was ≥ 26 µM with Saos-2, ≥ 26 µM in the experiment with U2-OS and 15 µM in the experiment with HCT116. In addition, the results for the Ki (in experiment [1]; at CDK2/cyclin A) were 0.02 µM and 0.638 µM, respectively.
For `CN1CCN(c2ccc(Nc3nc(N)c(C(=O)c4c(Cl)cccc4Cl)s3)cc2)CC1` [C(71), {4-Amino-2-[4-(4-methyl-piperazin-1-yl)-phenylamino]-thiazol-5-yl}-(2,6-dichloro-phenyl)-methanone], the Ki was 0.827 µM in experiment [2] and 0.482 µM on CDK2/cyclin A.
As to `CC(=O)Nc1ccc(Cl)c(C(=O)c2sc(Nc3ccc4nc[nH]c4c3)nc2N)c1Cl` [C(82), N-{3-[4-Amino-2-(1H-benzoimidazol-6-ylamino)-thiazole-5-carbonyl]-2,4-dichloro-phenyl}-acetamide], the half-maximal inhibitory concentration (IC50) in the experiment on Saos-2, in the experiment on U2-OS and in the experiment with HCT116 was > 25 µM each time. In addition, the “% inhibition of growth in parentheses after >25” value is reported as 15% in the experiment on Saos-2, 1% in the experiment on U2-OS and 1% with HCT116. The figures for the Ki (in experiment [1]; at CDK2/cyclin A) were 0.0442 µM and 0.467 µM, respectively.
Turning to `Nc1nc(Nc2ccc(C(=O)C3COC(=O)[C@H]3N)cc2)sc1C(=O)c1c(Cl)cncc1Cl` (stereo partly drawn) [C(88), trans-3RS-Amino-4RS-{4-[4-amino-5-(3,5-dichloropyridine-4-carbonyl)-thiazol-2-ylamino]-benzoyl}-dihydro-furan-2-one], the figures for the IC50 with Saos-2, in the experiment on U2-OS and in the experiment on HCT116 were 22 µM, > 25 µM and 19 µM, respectively. Further, the IC90 in the experiment with Saos-2 and in the experiment with HCT116 was > 25 µM throughout. For the same compound, the “% inhibition of growth in parentheses after >25” value in the experiment on Saos-2 is “(56%)”; in the experiment on U2-OS it was 26%; with HCT116 it was 70%. Further, the results for the Ki (in experiment [1]; on CDK2/cyclin A) were 0.065 µM and 0.305 µM, respectively.
Regarding `Nc1nc(Nc2ccc3nc[nH]c3c2)sc1C(=O)c1c(Cl)cc(Br)c(N)c1Cl` [C(91), [4-Amino-2-(1H-benzoimidazol-6-ylamino)-thiazol-5-yl]-(3-amino-4-bromo-2,6-dichloro-phenyl)-methanone], the IC50 with Saos-2 was found to be 5.9 µM; in the experiment with U2-OS, 19 µM; in the experiment on HCT116, 4.7 µM. For the same compound, the IC90 is 23 µM with Saos-2, > 25 µM in the experiment with U2-OS and 18 µM in the experiment with HCT116. Further, the Ki is 0.0068 µM in experiment [1] and 0.081 µM at CDK2/cyclin A.
`CC(=O)N1CCN(c2ccc(Nc3nc(N)c(C(=O)c4c(Cl)cccc4Cl)s3)cc2)CC1` [C(97), 2-[4-(1-Acetyl-piperazin-4-yl)-phenylamino]-4-amino-thiazol-5-yl-(2,6-dichlorophenyl)-methanone]: the IC50 in the experiment with Saos-2 worked out at 9 µM; with U2-OS, 10 µM; with HCT116 it was 3.9 µM. Besides, the IC90 with Saos-2 came to 20 µM; in the experiment with U2-OS, 21 µM; in the experiment on HCT116 it was 11 µM. For the same compound, the Ki came out at 0.0085 µM in experiment [1] and 0.392 µM at CDK2/cyclin A.
Regarding `Nc1nc(Nc2ccc(S(N)(=O)=O)cc2)sc1C(=O)c1c(Cl)cc(Cl)cc1Cl` [C(107), 4-[4-Amino-5-(2,4,6-trichloro-benzoyl)-thiazol-2-yl-amino]-benzenesulfonamide], the IC50 was found to be 5.7 µM in the experiment on Saos-2, 7.9 µM in the experiment with U2-OS and 2.5 µM with HCT116. Moreover, the IC90 came to 12 µM in the experiment on Saos-2, 12 µM in the experiment on U2-OS and 7 µM with HCT116. Moreover, the Ki amounted to 0.0138 µM in experiment [1] and 0.0125 µM on CDK2/cyclin A.
Take `CC(=O)N1CCN(c2ccc(Nc3nc(N)c(C(=O)c4c(F)cccc4F)s3)cc2)CC1` [C(111), 2-[4-(1-Acetyl-piperazin-4-yl)-phenylamino]-4-amino-thiazol-5-yl-(2,6-difluorophenyl)-methanone]: the results for the IC50 in the experiment with Saos-2, in the experiment with U2-OS and in the experiment with HCT116 were 3.8 µM, 3 µM and 1.7 µM, respectively. Moreover, the IC90 amounted to 5.9 µM in the experiment on Saos-2, 5.5 µM in the experiment with U2-OS and 3.8 µM in the experiment with HCT116. Moreover, the Ki in experiment [1] is 0.021 µM; at CDK2/cyclin A, 0.216 µM.
With `NC(=O)c1ccc(Nc2nc(N)c(C(=O)c3c(F)cccc3C(F)(F)F)s2)cc1` [C(113), 4-[4-Amino-5-(2-fluoro-6-trifluoromethyl-benzoyl)-thiazol-2-ylamino]-benzamide], the half-inhibitory concentration (IC50) in the experiment with Saos-2 came to 2.8 µM; in the experiment with U2-OS, 8 µM; in the experiment with HCT116 it was 3.8 µM. For the same compound, the IC90 with Saos-2 was 9 µM; in the experiment with U2-OS it was 19 µM; in the experiment on HCT116, 8 µM. Moreover, the Ki is 0.0173 µM in experiment [1] and 0.238 µM at CDK2/cyclin A.
On to `NC(=O)N1CCN(c2ccc(Nc3nc(N)c(C(=O)c4c(F)cccc4F)s3)cc2)CC1` [C(123), {4-Amino-2-[4-(4-carbamoyl-piperazin-1-yl)-phenylamino]-thiazol-5-yl}-(2,6-difluoro-phenyl)-methanone], for which the IC50 came to 2.9 µM in the experiment on Saos-2, 7.1 µM with U2-OS and 2.7 µM in the experiment on HCT116. Besides, the IC90 in the experiment with Saos-2 came out at 5.7 µM; in the experiment with U2-OS, 12 µM; with HCT116, 7 µM. Further, the Ki in experiment [1] was determined as 0.0154 µM; at CDK2/cyclin A it was 0.164 µM.
Regarding `Cc1cc(N)sc1C(=O)c1sc(Nc2ccc(S(N)(=O)=O)cc2)nc1N` [D(5)], the IC50 in the experiment with Saos-2 is 17 µM; in the experiment on U2-OS, > 25 µM; with HCT116, 1.9 µM. The IC90 in the experiment with Saos-2 is 25 µM; with HCT116 it was 5 µM. Besides, the Ki in experiment [1] is 0.159 µM; on CDK2/cyclin A, 0.233 µM.

Broadly, the IC50 is the point on the concentration scale where inhibition reaches its midpoint. In general, IC90 refers to the point of the concentration-response curve where the effect stands at 90%. Read a high IC90 as weaker potency.

(Values after patent publication US6569878B1, “Substituted 4-amino-thiazol-2-yl compounds as cyclin-dependent kinase inhibitors” (Agouron Pharmaceuticals Inc., priority 1997, dated 2003).)
